{"source": "patent US7022513B2", "about": "“Cell based signal generation” (priority 1999, dated 2006)", "system": "strain CY7284", "assay": "lacZ assay, Cp5766 in strain CY7284 with integrated LexAop-lacZ", "assay_type": "cell-based, yeast", "conditions": "after 3 hours of treatment, data not shown", "description": "In addition to transformation of the chimeric construct, the construct may also be integrated into the yeast strain. […] The lacZ assay was performed as described above."}
{"substance": "a-factor", "values": [{"measurement": "increase of β-galactosidase activities", "value": 63, "unit": "fold"}]}
